According to US20220396565A1 (Hoffmann-La Roche Inc., priority 2020, published 2022):
Where a name gives a salt, the structure may show the parent alone.

system: Acinetobacter baumannii ATCC17961; experiment: Antimicrobial susceptibility testing: 90% growth inhibitory concentration (IC90) determination, Iso-Sensitest broth; type: cell-based; conditions: Acinetobacter baumannii, ATCC17961, 90% growth inhibitory concentration, Acinetobacter baumannii ATCC17961, Iso-Sensitest broth; read-out: ATCC 17961 IC90
Outline: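 Twofold serial dilutions (e.g. 10 to 0.02 μM final) were tested in Iso-Sensitest broth against ~5×10^(5) CFU/ml at 35±2 °C. OD600 was read every 20 min over 16 h. IC90 was derived from growth inhibition during the logarithmic phase.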

Compound	IC90 [nM]
COc1ccc(-c2cnc(C(=O)Nc3ccc(C(=O)N4CCN(C(=O)C5CC(CN)C5)CC4)c(Cl)c3)n2C)c(F)c1F (stereo not drawn) [Example 185, N-[4-[4-[3-(aminomethyl)cyclobutanecarbonyl]piperazine-1-carbonyl]-3-chloro-phenyl]-5-(2,3-difluoro-4-methoxy-phenyl)-1-methyl-imidazole-2-carboxamide formate]	60
Cn1c(-c2ccc(F)c(F)c2F)cnc1C(=O)Nc1ccc(C(=O)N2CCN(C(=O)C3CCNCC3)CC2)c(Cl)c1 [Example 191, N-[3-chloro-4-[4-(piperidine-4-carbonyl)piperazine-1-carbonyl]phenyl]-1-methyl-5-(2,3,4-trifluorophenyl)imidazole-2-carboxamide formate]	230
COc1ccc(-c2cnc(C(=O)Nc3ccc(C(=O)N4CCN(C(=O)C5CCNCC5)CC4)c(Cl)c3)n2C)cc1C#N [Example 192, N-[3-chloro-4-[4-(piperidine-4-carbonyl)piperazine-1-carbonyl]phenyl]-5-(3-cyano-4-methoxy-phenyl)-1-methyl-imidazole-2-carboxamide formate]	460
Cn1c(-c2ccc(F)c(C#N)c2F)cnc1C(=O)Nc1ccc(C(=O)N2CCN(C(=O)C3CCNCC3)CC2)c(Cl)c1 [Example 193, N-[3-chloro-4-[4-(piperidine-4-carbonyl)piperazine-1-carbonyl]phenyl]-5-(3-cyano-2,4-difluoro-phenyl)-1-methyl-imidazole-2-carboxamide formate]	2590
COc1ccc(-c2cnc(C(=O)Nc3ccc(C(=O)N4CCN(C(=O)C[C@@H]5CCNC5)CC4)c(Cl)c3)n2C)c(F)c1F [Example 194, N-[3-chloro-4-[4-[2-[(3S)-pyrrolidin-3-yl]acetyl]piperazine-1-carbonyl]phenyl]-5-(2,3-difluoro-4-methoxy-phenyl)-1-methyl-imidazole-2-carboxamide formate]	50
Cn1c(-c2ccc(OCC#N)c(F)c2F)cnc1C(=O)Nc1ccc(C(=O)N2CCN(C(=O)[C@@H]3C[C@H](N)CN3)CC2)c(Cl)c1 [Example 209, N-(4-(4-((2S,4S)-4-aminopyrrolidine-2-carbonyl)piperazine-1-carbonyl)-3-chlorophenyl)-5-(4-(cyanomethoxy)-2,3-difluorophenyl)-1-methyl 1H-imidazole-2-carboxamide]	80
Cn1c(-c2ccc(OCC#N)c(F)c2F)cnc1C(=O)Nc1ccc(C(=O)N2CCN(C(=O)[C@@H]3NCC[C@@H]3O)CC2)c(Cl)c1 [Example 210, N-(3-chloro-4-(4-((2R,3S)-3-hydroxypyrrolidine-2-carbonyl)piperazine-1-carbonyl)phenyl)-5-(4-(cyanomethoxy)-2,3-difluorophenyl)-1-methyl-1H-imidazole-2-carboxamide formate]	60
Cn1c(-c2ccc(OCC#N)c(F)c2F)cnc1C(=O)Nc1ccc(C(=O)N2CCN(C(=O)CN3CC(C(=O)O)C3)CC2)c(Cl)c1 [Example 212, 1-(2-(4-(2-chloro-4-(5-(4-(cyanomethoxy)-2,3-difluorophenyl)-1-methyl-1H-imidazole-2-carboxamido)benzoyl)piperazin-1-yl)-2-oxoethyl)azetidine-3-carboxylic acid 2,2,2-trifluoroacetate]	850
Cn1c(-c2ccc(OCC#N)c(F)c2F)cnc1C(=O)Nc1ccc(C(=O)N2CCN(CCNC(=O)[C@H]3CCCN3)CC2)c(Cl)c1 [Example 213, (R)-N-(3-chloro-4-(4-(2-(pyrrolidine-2-carboxamido)ethyl)piperazine-1-carbonyl)phenyl)-5-(4-(cyanomethoxy)-2,3-difluorophenyl)-1-methyl-1H-imidazole-2-carboxamide 2,2,2-trifluoroacetate]	100
Cn1c(-c2ccc(OCC#N)c(F)c2F)cnc1C(=O)Nc1ccc(C(=O)N2CCN(C(=O)C3CNCC(O)C3)CC2)c(Cl)c1 (stereo not drawn) [Example 214, N-(3-chloro-4-(4-(5-hydroxypiperidine-3-carbonyl)piperazine-1-carbonyl)phenyl)-5-(4-(cyanomethoxy)-2,3-difluorophenyl)-1-methyl-1H-imidazole-2-carboxamide 2,2,2-trifluoroacetate]	70
Cn1c(-c2ccc(OCC#N)c(F)c2F)cnc1C(=O)Nc1ccc(C(=O)N2CCN(C(=O)CN3CC[C@@H](C(=O)O)C3)CC2)c(Cl)c1 [Example 215, (R)-1-(2-(4-(2-chloro-4-(5-(4-(cyanomethoxy)-2,3-difluorophenyl)-1-methyl-1H-imidazole-2-carboxamido)benzoyl)piperazin-1-yl)-2-oxoethyl)pyrrolidine-3-carboxylic acid 2,2,2-trifluoroacetic acid]	800
COc1ccc(-c2cnc(C(=O)Nc3ccc(C(=O)N4CCN(S(=O)(=O)C5CCNCC5)CC4)c(Cl)c3)n2C)c(F)c1F [Example 216, N-(3-chloro-4-(4-(piperidin-4-ylsulfonyl)piperazine-1-carbonyl)phenyl)-5-(2,3-difluoro-4-methoxyphenyl)-1-methyl-1H-imidazole-2-carboxamide formate]	120

Now from value to compound:

IC90 [nM]	Compound
100	COc1ccc(-c2cnc(C(=O)Nc3ccc(C(=O)N4C[C@@H]5CN(C(=O)C6CCNCC6)C[C@@H]5C4)c(Cl)c3)n2C)c(F)c1F [Example 186, N-[4-[(3aR,6aS)-5-(piperidine-4-carbonyl)-1,3,3a,4,6,6a-hexahydropyrrolo[3,4-c]pyrrole-2-carbonyl]-3-chloro-phenyl]-5-(2,3-difluoro-4-methoxy-phenyl)-1-methyl-idazole-2-carboxamide formate]
110	COc1ccc(-c2cnc(C(=O)Nc3ccc(C(=O)N4CC(NC(=O)C5CCNCC5)C4)c(Cl)c3)n2C)c(F)c1F [Example 187, N-[1-[2-chloro-4-[[5-(2,3-difluoro-4-methoxy-phenyl)-1-methyl-imidazole-2-carbonyl]amino]benzoyl]azetidin-3-yl]piperidine-4-carboxamide formate]
140	COc1ccc(-c2cnc(C(=O)Nc3ccc(C(=O)N4C[C@@H]5CN(C(=O)[C@@H]6CCNC6)C[C@@H]5C4)c(Cl)c3)n2C)c(F)c1F [Example 188, N-[4-[(3aR,6aS)-5-[(3R)-pyrrolidine-3-carbonyl]-1,3,3a,4,6,6a-hexahydropyrrolo[3,4-c]pyrrole-2-carbonyl]-3-chloro-phenyl]-5-(2,3-difluoro-4-methoxy-phenyl)-1-methyl-imidazole-2-carboxamide formate]
140	COc1ccc(-c2cnc(C(=O)Nc3ccc(C(=O)N4CC(NC(=O)CN(C)C)C4)c(Cl)c3)n2C)c(F)c1F [Example 189, N-[3-chloro-4-[3-[[2-(dimethylamino)acetyl]amino]azetidine-1-carbonyl]phenyl]-5-(2,3-difluoro-4-methoxy-phenyl)-1-methyl-imidazole-2-carboxamide formate]
180	COc1ccc(-c2cnc(C(=O)Nc3ccc(C(=O)N4C[C@H]5CN(C(=O)CN(C)C)C[C@H]5C4)c(Cl)c3)n2C)c(F)c1F [Example 190, N-[4-[(3aS,6aR)-2-[2-(dimethylamino)acetyl]-1,3,3a,4,6,6a-hexahydropyrrolo[3,4-c]pyrrole-5-carbonyl]-3-chloro-phenyl]-5-(2,3-difluoro-4-methoxy-phenyl)-1-methyl-imidazole-2-carboxamide formate]
90	COc1ccc(-c2cnc(C(=O)Nc3ccc(C(=O)N4CCC(NC(=O)CN(C)C)CC4)c(Cl)c3)n2C)c(F)c1F [Example 195, N-[3-chloro-4-[4-[[2-(dimethylamino)acetyl]amino]piperidine-1-carbonyl]phenyl]-5-(2,3-difluoro-4-methoxy-phenyl)-1-methyl-imidazole-2-carboxamide]
90	COc1ccc(-c2cnc(C(=O)Nc3ccc(C(=O)N4CC(NC(=O)CN)C4)c(Cl)c3)n2C)c(F)c1F [Example 217, N-(4-(3-(2-aminoacetamido)azetidine-1-carbonyl)-3-chlorophenyl)-5-(2,3-difluoro-4-methoxyphenyl)-1-methyl-1H-imidazole-2-carboxamide formate]
90	COc1ccc(-c2cnc(C(=O)Nc3ccc(C(=O)N4CC(NC(=O)C5CC(CN)C5)C4)c(Cl)c3)n2C)c(F)c1F (stereo not drawn) [Example 218, N-(4-(3-(3-(aminomethyl)cyclobutane-1-carboxamido)azetidine-1-carbonyl)-3-chlorophenyl)-5-(2,3-difluoro-4-methoxyphenyl)-1-methyl-1H-imidazole-2-carboxamide 2,2,2-trifluoroacetate]
110	COc1ccc(-c2cnc(C(=O)Nc3ccc(C(=O)N4CCN(C(=O)C5CC(O)C5)CC4)c(Cl)c3)n2C)c(F)c1F (stereo not drawn) [Example 219, N-(3-chloro-4-(4-(3-hydroxycyclobutane-1-carbonyl)piperazine-1-carbonyl)phenyl)-5-(2,3-difluoro-4-methoxyphenyl)-1-methyl-1H-imidazole-2-carboxamide]
40	CN(C)CC(=O)N1CCN(C(=O)c2ccc(NC(=O)c3ncc(-c4ccc(OCF)c(F)c4F)n3C)cc2Cl)CC1 [Example 220, N-(3-chloro-4-(4-(dimethylglycyl)piperazine-1-carbonyl)phenyl)-5-(2,3-difluoro-4-(fluoromethoxy)phenyl)-1-methyl-1H-imidazole-2-carboxamide formate]

same assay, conditions: Acinetobacter baumannii, ATCC17961, read-out: ATCC 17961 IC90

Compound	IC90 [nM]
Cn1c(-c2ccc(OCC#N)c(F)c2F)cnc1C(=O)Nc1ccc(C(=O)N2CCN(C(=O)[C@H]3CCCNC3)CC2)c(Cl)c1 [Example 208, (S)-N-(3-chloro-4-(4-(piperidine-3-carbonyl)piperazine-1-carbonyl)phenyl)-5-(4-(cyanomethoxy)-2,3-difluorophenyl)-1-methyl 1H-imidazole-2-carboxamide 2,2,2-trifluoroacetate]	50
Cn1c(-c2ccc(OCC#N)c(F)c2F)cnc1C(=O)Nc1ccc(C(=O)N2CCN(C(=O)[C@@H]3CCCCN3)CC2)c(Cl)c1 [Example 211, (S)-N-(3-chloro-4-(4-(piperidine-2-carbonyl)piperazine-1-carbonyl)phenyl)-5-(4-(cyanomethoxy)-2,3-difluorophenyl)-1-methyl 1H-imidazole-2-carboxamide formate]	50
